Laboratory results published in BindingDB's records for doi:10.1016/S1074-5521(00)00104-6 (Axys Pharmaceutical, 2000).

Experiments:
Experiment in all cases: Enzyme Assay and Determination of the Inhibition Constants
Details in all cases: pH 7.4; 22 °C
Coagulation factor X = Coagulation factor X (Homo sapiens, UniProt P00742)
Procedure: (§1) Each enzyme was assayed with a set of different concentrations of each inhibitor. […] Ki(apparent) values were calculated from enzyme velocity curves using the software package BatchKi (BioKin Ltd, Madison, WI). These apparent inhibition constants were then converted to Ki values by assuming competitive inhibition and using the formula Ki = Ki(apparent)/(1 + S/Km).

[1] = target: Urokinase-type plasminogen activator (Homo sapiens, UniProt P00749)
Procedure: as §1

Tryptase beta-2 = Tryptase beta-2 (Homo sapiens, UniProt P20231)
Tryptase beta-2, sequence (P20231 as listed by the source): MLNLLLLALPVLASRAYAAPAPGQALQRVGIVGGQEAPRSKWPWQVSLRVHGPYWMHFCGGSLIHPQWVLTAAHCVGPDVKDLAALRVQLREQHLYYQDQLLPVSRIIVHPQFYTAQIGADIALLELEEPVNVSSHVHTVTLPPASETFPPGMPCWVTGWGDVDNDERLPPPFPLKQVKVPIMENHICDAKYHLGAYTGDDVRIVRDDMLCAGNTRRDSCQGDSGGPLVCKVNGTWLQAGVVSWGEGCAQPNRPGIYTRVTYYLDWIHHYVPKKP
Procedure: as §1

[2] = target: Tissue-type plasminogen activator (Homo sapiens, UniProt P00750)
Tissue-type plasminogen activator, sequence (P00750 whole entry): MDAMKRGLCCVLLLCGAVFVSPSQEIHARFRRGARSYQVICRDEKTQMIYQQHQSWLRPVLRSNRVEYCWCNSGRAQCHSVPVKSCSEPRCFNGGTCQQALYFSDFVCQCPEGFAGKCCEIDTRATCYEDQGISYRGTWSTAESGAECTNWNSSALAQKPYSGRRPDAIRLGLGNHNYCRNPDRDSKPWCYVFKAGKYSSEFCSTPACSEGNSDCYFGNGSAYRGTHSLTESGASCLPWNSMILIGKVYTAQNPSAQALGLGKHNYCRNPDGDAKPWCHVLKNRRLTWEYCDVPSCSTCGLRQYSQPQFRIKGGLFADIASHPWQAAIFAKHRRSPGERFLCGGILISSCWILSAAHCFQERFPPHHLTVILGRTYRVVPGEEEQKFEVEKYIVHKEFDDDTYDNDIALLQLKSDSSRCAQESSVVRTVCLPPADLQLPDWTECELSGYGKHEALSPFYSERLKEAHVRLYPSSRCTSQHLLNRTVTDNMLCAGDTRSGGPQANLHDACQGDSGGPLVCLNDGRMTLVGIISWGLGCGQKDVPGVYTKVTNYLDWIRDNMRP
Procedure: as §1

Prothrombin = Prothrombin (Homo sapiens, UniProt P00734)
Procedure: as §1

Coagulation factor X, sequence (P00742 41-179 limits assumed): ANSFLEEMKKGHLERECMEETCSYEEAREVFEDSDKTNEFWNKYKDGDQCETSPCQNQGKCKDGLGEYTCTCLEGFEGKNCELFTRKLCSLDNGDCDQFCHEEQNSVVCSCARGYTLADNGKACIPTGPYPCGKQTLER
Coagulation factor X, sequence (P00742 235-488 limits assumed): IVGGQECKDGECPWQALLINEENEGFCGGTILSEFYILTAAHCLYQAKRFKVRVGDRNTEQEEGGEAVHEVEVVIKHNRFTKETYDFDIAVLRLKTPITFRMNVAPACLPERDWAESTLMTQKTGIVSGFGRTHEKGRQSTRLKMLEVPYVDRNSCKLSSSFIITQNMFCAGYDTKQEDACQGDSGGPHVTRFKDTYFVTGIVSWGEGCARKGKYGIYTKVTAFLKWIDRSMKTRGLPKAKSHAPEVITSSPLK

| Ki (Coagulation factor X) | Ki [1] | Ki (Tryptase beta-2) | Ki [2] | Ki (Prothrombin) | Compound |
| --- | --- | --- | --- | --- | --- |
| 110 µM |  |  |  |  | N=C(N)c1ccccc1 [Benzamidine] |
| 21 µM | 2.3 µM | 9.9 µM | 15 µM | 58 µM | N=C(N)c1cc2ccccc2s1 [Benzo[b]thiophene-2-carboxamidine] |
| 30 µM |  | 1.5 µM | 16.8 µM |  | N=C(N)c1cc2c(I)cccc2s1 [CA-01] |
| 360 µM |  | 34 µM | 1800 µM | 1600 µM | N=C(N)c1cc2cccnc2s1 [[amino(thieno[2,3-b]pyridin-2-yl)methylidene]azanium] |
